In EP4596537A1, “NOVEL FLUORENE DERIVATIVE COMPOUND AND USE THEREOF” (JD Bioscience Inc., priority 2022, dated 2024):

What was measured:
[1] = test system: KKAy diabetes mice; test: Intraperitoneal glucose tolerance test (IPGTT) in diabetes animal model; assay type: in vivo; settings: 0.5 mg/kg once a day by oral gavage, 10 weeks; 1 g/kg glucose i.p.; vs vehicle group
Procedure: A vehicle (10% DMSO + 0.5% methylcellulose) and the compound of Example 1 (Compound 1) were administered to 6-week-old male KKAy diabetes mice (n = 6 per group) at a dose of 0.5 mg/kg once a day by oral gavage. At 10 weeks of administration, an intraperitoneal glucose tolerance test (IPGTT) was performed by intraperitoneally administering 1 g/kg of glucose, and the results are shown in FIG. 1.

[2] = test system: H9C2 cells; test: Myocardial infarction cell model (hypoxia-reoxygenation); assay type: cell-based, rat; settings: 1 µM
Procedure: H9C2 cells, which are a rat […] cell line, were seeded at a density of 3 × 10^3 cells/well in a 96-well plate and cultured for 24 hours. The next day, the medium was replaced with FBS-free DMEM and cultured for an additional 24 hours. After replacing the medium with FBS-free DMEM again, 1 µM of Compound 1 was treated and cultured in a hypoxia chamber (1% oxygen, 5% CO2) for 2 hours (hypoxia). After replacing the medium with DMEM with 10% FBS, 1 µM of Compound 1 was treated and cultured in a CO2 incubator for 1 hour (reoxygenation). Apoptosis, mitochondrial superoxide levels, and intracellular calcium levels were measured, and the results are shown in FIGS. 4 and 5, respectively.

[3] = test system: BALB/c male mice; test: Graft-versus-host disease (GvHD) animal model; assay type: in vivo; set-up: change in body weight: unit not given here; settings: for body weight of the GvHD in vivo model: compared to control group
Procedure: 5-week-old BALB/c male mice were acclimatized for 1 week and irradiated with 800 cGy of total body irradiation. Then, 5 × 10^6 bone marrow cells derived from C57BL/6J and 1 × 10^7 spleen cells were intravenously injected to establish a GvHD in vivo model (positive control). A syngeneic control group was established in the same manner as above, but BALB/c-derived bone marrow cells were selected as the injected bone marrow cells. Compound 1 Daily was established by daily oral gavage of1 mg/kg of Compound 1 to the GvHD in vivo model. Compound 1 Initial only was established by orally administering 1 mg/kg of Compound 1 to the GvHD in vivo model only for 6 days after model induction. The therapeutic effect of Compound 1 was verified by measuring the change in body weight every 3 days for each control and experimental group established as above, and the results are shown in FIG. 11 and Table 4. On day 14, the production of CD4^+IFNg^+ T cells, which is a major factor inducing GvHD, was measured in the spleens isolated from the mice, and the results are shown in FIG. 12 and Table 5.

[4] = test system: NCI-H295R cells; test: Cortisol production (ELISA), Cushing's syndrome cell model; assay type: cell-based, human; settings: 0.1 µM, 0.5 µM, and 1 µM; 0.5 mM 8-Br-cAMP; concentration-dependent
Procedure: NCI-H295R cells (ATCC #CRL-2128), which are a human adrenocortical carcinoma cell line, were seeded at a density of 2.5 × 10^5 cells/well in a 24-well plate. The cells were cultured for 48 hours, and then they were pretreated with Compound 1 (0.1 µM, 0.5 µM, and 1 µM) for 12 hours. Furthermore, to increase cortisol synthesis, the cells were treated with 8-bromoadenosine […] monophosphate (8-Br-cAMP) at a concentration of 0.5 mM, and then re-treated with Compound 1, and allowed to react for 24 hours. After the reaction, the cell culture medium was collected, and the amount of cortisol produced in the cells was measured using an ELISA kit, and the results are shown in FIG. 14.

[5] = test system: normal cells; test: Growth inhibition (Cell Counting Kit-8), normal cells; assay type: cell-based; settings: 24 hours, 10% FBS; concentration of up to less than 40 µM
Procedure: (§1) In order to verify the growth inhibitory effect of Compound 1 on various normal and cancer cell lines, 25 types of cell lines listed in Table 7 below were tested. In detail, each cell was seeded at a density of 2 × 10^4 cells/well in a 96-well plate and cultured for 24 hours, and then the medium was replaced with a medium comprising 0.5% (for cancer cells) or 10% (for normal cells) FBS, and Compound 1 was treated at various concentrations. 24 hours later, 10 µL of Cell Counting Kit-8 (Dojindo Molecular Technologies) was added, and 1 hour later, absorbance at 480 nm was measured using a microplate reader (TECAN SPARK), and the results are shown in FIGS. 15 to 21.

[6] = test system: bladder cancer cells; test: Growth inhibition (Cell Counting Kit-8), bladder cancer cells; assay type: cell-based; settings: 24 hours, 0.5% FBS
Procedure: as §1

[7] = test system: CT26 colorectal cancer cell line; test: Anticancer efficacy in CT26 colorectal cancer tumor model; assay type: in vivo, nude mice; settings: 1.0 mg/kg
Procedure: A colorectal cancer model was established by subcutaneously transplanting CT26 colorectal cancer cell line into nude mice. The colorectal cancer model was divided into two groups: vehicle administration group and Compound 1 administration group. […] Similar to Experimental Example 13, tumor size was calculated before drug administration and on days 3, 7, 10, 14, 18, 22, and 24 after drug administration, and body weight was measured before drug administration and on days 7, 14 and 22 after drug administration, which are shown in FIG. 22.
Additionally, tumors were extracted from the colorectal cancer model, fixed with 4% PFA solution, and subjected to TUNEL assay to determine the degree of apoptosis induction, and the results are shown in FIG. 22. As shown in the middle of FIG. 22, 28% apoptosis was induced in the vehicle administration group, and 72% apoptosis was induced in the 1.0 mg/kg compound 1 administration group, and statistical significance between these values was also verified (*p<0.01 versus the vehicle administration group).

## CC(C(=O)NNc1ccc(F)cc1)n1cc(-c2cc(F)cc3c2-c2ccccc2C3(O)C(F)(F)F)cn1 (stereo not shown) [Example 1, 2-(4-(2-fluoro-9-hydroxy-9-(trifluoromethyl)-9H-fluoren-4-yl)-1H-pyrazol-1-yl)-N'-(4-fluorophenyl)propanehydrazide]
[1]
  blood glucose increase (IPGTT): significantly suppressed
[2]; hypoxia-reoxygenation
  intracellular calcium (Rhod2 staining): remarkably reduced
  mitochondrial superoxide (MitoSOX staining): remarkably reduced
[2]; hypoxia-reoxygenation (H/R)
  apoptosis (TUNEL staining): markedly reduced
[3]; Daily oral gavage 1 mg/kg, D0
  change in body weight: 0
[3]; Daily oral gavage 1 mg/kg, D3
  change in body weight: -14.77
[3]; Daily oral gavage 1 mg/kg, D6
  change in body weight: -22.95
[3]; Daily oral gavage 1 mg/kg, D9
  change in body weight: -19.07
[3]; Daily oral gavage 1 mg/kg, D12
  change in body weight: -16.1959
[3]; Daily oral gavage 1 mg/kg
  body weight of the GvHD in vivo model: significantly recovered
[3]; Initial only: 1 mg/kg oral for 6 days after model induction, D0
  change in body weight: 0
[3]; Initial only: 1 mg/kg oral for 6 days after model induction, D3
  change in body weight: -11.15
[3]; Initial only: 1 mg/kg oral for 6 days after model induction, D6
  change in body weight: -19.01
[3]; Initial only: 1 mg/kg oral for 6 days after model induction, D9
  change in body weight: -14.6667
[3]; Initial only: 1 mg/kg oral for 6 days after model induction, D12
  change in body weight: -11.99
[3]; Initial only: 1 mg/kg oral for 6 days
  body weight of the GvHD in vivo model: significantly recovered
[4]
  cortisol production: significantly inhibited
[5]
  viability: ≥ 70%
[6]
  concentration at which viability began to rapidly decrease to 70% or less: less than 1.2 µM
[7]; day 24
  decrease in tumor growth (tumor volume) compared to vehicle: 55%
[7]; days 7, 14, 22
  change in the body weight: Neither the vehicle administration group nor the compound 1 administration group showed any change in the body weight
[7]; vehicle group 28%
  apoptosis induced in tumor (TUNEL assay): 72%
